Results reported in patent publication US10508109B2 (priority 2015, dated 2019).
Structures can show the parent of a compound that is named as a salt. Where two headings read alike, the source gives them in different places.

Columns and labels:
PC14 = test: Cell-based assay, anti-proliferative activity (Cell Counting Kit-8, 72 hours); settings: PC14 cells, read-out: IC50 (μM) PC14
How it was run: (§1)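 Anti-proliferative IC50 obtained from 96-well cultures treated 72 h with inhibitor at 0–100 micro-M, growth assessed by a CCK-8 colorimetric readout.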

CCD-18Co = test: as above; settings: CCD-18Co cells, read-out: IC50 (μM) CCD-18Co
How it was run: as §1

HFL1 = test: as above; settings: HFL1 cells, read-out: IC50 (μM) HFL1
How it was run: as §1

HCT-116 = test: as above; settings: HCT-116 cells, read-out: IC50 (μM) HCT-116
How it was run: as §1

SUV39H2 = SUV39H2 (Homo sapiens (Human), UniProt Q9H5I1); settings: read-out: IC50 (μM) Suv 39H2 assay; enzyme assay
A549 = test: Cell-based assay, anti-proliferative activity (Cell Counting Kit-8, 72 hours); settings: A549 cells, read-out: IC50 (μM) A549
How it was run: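 Seed cells in 96-well format; add inhibitors; measure growth by CCK-8 at end of exposure; derive IC50.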

[1] = Homo sapiens, PC-14, Cell Counting Kit-8, 72 hours
[2] = Homo sapiens, Cell Counting Kit-8, 72 hours
[3] = Homo sapiens, PC-14, 72 hours, Cell Counting Kit-8
[4] = Homo sapiens, 72 hours, Cell Counting Kit-8

Sequence of SUV39H2 (Q9H5I1 whole entry): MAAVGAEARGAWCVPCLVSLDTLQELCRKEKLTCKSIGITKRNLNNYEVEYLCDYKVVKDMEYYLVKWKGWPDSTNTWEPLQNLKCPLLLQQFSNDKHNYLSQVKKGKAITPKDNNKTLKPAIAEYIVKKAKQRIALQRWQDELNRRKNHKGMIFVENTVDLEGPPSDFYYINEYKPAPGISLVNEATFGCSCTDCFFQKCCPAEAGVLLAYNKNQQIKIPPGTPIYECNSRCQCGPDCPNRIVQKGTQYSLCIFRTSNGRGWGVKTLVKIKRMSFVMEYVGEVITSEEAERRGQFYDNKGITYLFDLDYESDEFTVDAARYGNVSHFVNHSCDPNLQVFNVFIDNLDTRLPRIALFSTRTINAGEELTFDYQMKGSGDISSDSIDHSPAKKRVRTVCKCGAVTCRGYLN

Row | Compound | IC50 (PC14; [1]) [µM] | IC50 (CCD-18Co; [2]) [µM] | IC50 (HFL1; [2]) [µM] | IC50 (HCT-116; [2]) [µM] | IC50 (SUV39H2) [µM] | IC50 (A549; [2]) [µM] | IC50 (PC14; Cell Counting Kit-8, 72 hours) [µM] | IC50 (CCD-18Co; Cell Counting Kit-8, 72 hours) [µM] | IC50 (HFL1; Cell Counting Kit-8, 72 hours) [µM] | IC50 (HCT-116; Cell Counting Kit-8, 72 hours) [µM] | IC50 (A549; Cell Counting Kit-8, 72 hours) [µM] | IC50 (PC14; [3]) [µM] | IC50 (CCD-18Co; [4]) [µM] | IC50 (HFL1; [4]) [µM] | IC50 (HCT-116; [4]) [µM] | IC50 (A549; [4]) [µM]
1 | COc1cc(OC)c(-c2cn3ccc(N4CCC(NP(=O)(OC)OC)CC4)cc3n2)cc1Cl [Example 198, Dimethyl (1-(2-(5-chloro-2,4-dimethoxyphenyl)imidazo[1,2-a]pyridin-7-yl)piperidin-4-yl)phosphoramidate] | 3.7 | 3.5 | 1.6 | 5.7 | 0.00435 | 3.2 | – | – | – | – | – | – | – | – | – | –
2 | COC(=O)N1CCN(c2ccn3cc(-c4cc(Cl)c(OC)cc4OC)nc3n2)CC1 [Example 159, methyl 4-(2-(5-chloro-2,4-dimethoxyphenyl)imidazo[1,2-a]pyrimidin-7-yl)piperazine-1-carboxylate] | 4.7 | 3.7 | 3.4 | 3.2 | 0.0157 | 2.7 | – | – | – | – | – | – | – | – | – | –
3 | COc1cc(OCCCN(C)C)c(-c2cn3ccc(N4CCCC4)cc3n2)cc1Cl [Example 80, 3-{4-chloro-5-methoxy-2-[7-(pyrrolidin-1-yl)imidazo[1,2-a]pyridin-2-yl]-phenoxy}-N,N-dimethylpropan-1-amine] | 1.7 | 1.8 | 0.85 | 1.1 | 0.00531 | 1.6 | – | – | – | – | – | – | – | – | – | –
4 | CCS(=O)(=O)N1CCN(c2ccn3cc(-c4cc(Cl)c(OC)cc4OC)nc3n2)CC1 [Example 190, 2-(5-chloro-2,4-dimethoxyphenyl)-7-[4-(ethylsulfonyl)piperazin-1-yl]imidazo[1,2-a]pyrimidine] | 1 | 4.5 | 2.7 | 2.3 | 0.0306 | 1.8 | – | – | – | – | – | – | – | – | – | –
5 | 1-(4-(2-(5-chloro-2-(3-(dimethylamino)propoxy)-4-methoxyphenyl)-imidazo[1,2-a]pyridin-7-yl)piperazin-1-yl)-2,2-dimethylpropan-1-one [Example 154] | – | – | – | – | 0.0135 | – | 8 | 8.7 | 4.3 | 7.9 | 6.9 | – | – | – | – | –
6 | COc1cc(OC)c(-c2cn3ccc(N4CCCC4)cc3n2)cc1Cl [Example 4, 2-(5-chloro-2,4-dimethoxyphenyl)-7-(pyrrolidin-1-yl)imidazo[1,2-a]pyridine hydrobromide] | 1.4 | 1.1 | 1.4 | 1.5 | 0.0031 | 2 | – | – | – | – | – | – | – | – | – | –
7 | COc1cc(OCCCN(C)C)c(-c2cn3ccc(N4CCN(S(=O)(=O)C5CCCC5)CC4)nc3n2)cc1Cl [Example 227, 3-(4-chloro-2-(7-(4-(cyclopentylsulfonyl)piperazin-1-yl)imidazo[1,2-a]-pyrimidin-2-yl)-5-methoxyphenoxy)-N,N-dimethylpropan-1-amine] | – | – | – | – | 0.0382 | – | – | – | – | – | – | 5.4 | 6.2 | 5.7 | 5.2 | 7
8 | COc1cc(OC)c(-c2cn3ccc(N4CCC(NC(=O)C(C)(C)C)CC4)cc3n2)cc1Cl [Example 123, N-(1-(2-(5-chloro-2,4-dimethoxyphenyl)imidazo[1,2-a]pyridin-7-yl)piperidin-4-yl)pivalamide] | 2.2 | 3.4 | 2 | 2.6 | 0.00771 | 3.3 | – | – | – | – | – | – | – | – | – | –
9 | CCS(=O)(=O)N1CCCN(c2ccn3cc(-c4cc(Cl)c(OC)cc4OCCCN(C)C)nc3c2)CC1 [Example 215, 3-(4-chloro-2-(7-(4-(ethylsulfonyl)-1,4-diazepan-1-yl)imidazo[1,2-a]pyridin-2-yl)-5-methoxyphenoxy)-N,N-dimethylpropan-1-amine] | – | – | – | – | 0.0135 | – | – | – | – | – | – | 6.5 | 7.4 | 6.4 | 10 | 10
10 | COc1cc(OC)c(-c2cn3ccc(N4CCOCC4)cc3n2)cc1Cl [Example 12, 4-(2-(5-chloro-2,4-dimethoxyphenyl)imidazo[1,2-a]pyridin-7-yl)morpholine hydrobromide] | 2.9 | 9 | 6.8 | 5.1 | 0.012 | 6.9 | – | – | – | – | – | – | – | – | – | –
